Measured values: paper PMC13534789, “Molecular Glue Degraders Enhance CAPRIN1‐Dependent Lysosomal Degradation of APP and Reduce Amyloid β in Alzheimer's Disease” (Advanced Science, 2026)

How the values were obtained:
CAPRIN1 and APP = biological target: T1, CAPRIN1 and APP (Homo sapiens, UniProt P05067+Q14444); test: Streptavidin pull-down with biotinylated 0152 in AG27606-N lysates; assay type: binding
T1 construct: endogenous in cells; host or cells: AG27606-Ns, sAD2.3-Ns (iPSC-derived neurons) and their lysates

LN229 and HCT116 cells = tested on: LN229 and HCT116 cells; parameters: method as in PMID 34644148; settings: cited from earlier work

N#Cc1ccc2nc(NC(=O)Nc3cccc(Cl)c3)sc2c1 [HB007, reference compound]
Competition of the 0152-biotin pull-down by excess free compound (CAPRIN1 and APP): not by the inactive analog HB007 | Cancer cell growth (LN229 and HCT116 cells): inhibits cancer cell growth
